Laboratory results as given in patent US20260116920A1, “HUMAN TRANSFERRIN RECEPTOR BINDING PEPTIDE” (PEPTIDREAM INC., priority 2021, published 2026).
Positions of bridges follow the written chain, without caps; N, C: chain ends. Non-standard residues stand in square brackets, D forms with d. Residues, ends and D or L forms follow the SMILES beside them. *: point of attachment. Trp(1-CH2COOH) = N[C@@H](Cc1cn(CC(=O)O)c2ccccc12)C(=O)O; Phe(3-COOH) = N[C@@H](Cc1cccc(C(=O)O)c1)C(=O)O; NH(CH2CH2O)8Me = COCCOCCOCCOCCOCCOCCOCCOCCN*; NMePhe(3-Cl) = CN[C@@H](Cc1cccc(Cl)c1)C(=O)O; 3Pal(6-NH2) = Nc1ccc(C[C@H](N)C(=O)O)cn1; NMeY = CN[C@@H](Cc1ccc(O)cc1)C(=O)O; 3Pal = N[C@@H](Cc1cccnc1)C(=O)O; 4Pal = N[C@@H](Cc1ccncc1)C(=O)O; PEG4 = NCCOCCOCCOCCOCCC(=O)O; Carboxymethyl = O=C(O)C*

Molecular target: T1, human transferrin receptor (hTfR) (Homo sapiens, UniProt P02786)
T1 construct: made in house
Experiment: Evaluation of molecular interaction between transferrin receptor (hTfR) and peptide using surface plasmon resonance (SPR)
Type: binding
Details: surface plasmon resonance, binding to hTfR; KD class symbol; read-out: SPR (KD value)
How it was run: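 SPR, single-cycle kinetics; hTfR dimer on NTA chip via Ni capture plus EDC/NHS coupling. Analyte peptide 100, 50, 25, 10, 5 nM. Running buffer: 10 mM HEPES pH 8.0, 150 mM NaCl, 0.05% Tween 20, 0.1% BSA, 1.0% DMSO. KD by least-squares fit.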

T1 sequence (P02786 89-760 limits assumed): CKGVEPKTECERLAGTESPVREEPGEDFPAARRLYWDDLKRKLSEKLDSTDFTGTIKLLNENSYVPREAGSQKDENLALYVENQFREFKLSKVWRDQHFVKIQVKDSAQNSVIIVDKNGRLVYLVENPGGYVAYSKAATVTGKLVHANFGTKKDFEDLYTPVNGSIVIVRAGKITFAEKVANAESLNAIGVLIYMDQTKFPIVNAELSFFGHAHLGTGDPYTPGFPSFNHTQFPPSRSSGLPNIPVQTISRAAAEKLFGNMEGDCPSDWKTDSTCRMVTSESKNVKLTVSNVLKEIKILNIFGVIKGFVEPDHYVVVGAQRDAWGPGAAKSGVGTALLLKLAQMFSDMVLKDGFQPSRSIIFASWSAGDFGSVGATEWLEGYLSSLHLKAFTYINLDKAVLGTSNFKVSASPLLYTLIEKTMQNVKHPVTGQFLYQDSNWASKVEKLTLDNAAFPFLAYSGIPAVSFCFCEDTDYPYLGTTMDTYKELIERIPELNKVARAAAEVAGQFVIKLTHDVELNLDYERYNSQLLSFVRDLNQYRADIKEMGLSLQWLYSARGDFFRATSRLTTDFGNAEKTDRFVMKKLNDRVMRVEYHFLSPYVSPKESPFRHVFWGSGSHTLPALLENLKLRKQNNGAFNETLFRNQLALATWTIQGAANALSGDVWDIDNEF

Row | Kd | Compound
1 | 0.001 to 0.1 µM | CC[C@H](C)[C@@H]1NC(=O)[C@H](Cc2ccc(OCC(=O)O)cc2)NC(=O)[C@H](Cc2ccc(O)cc2)NC(=O)[C@H](CC(N)=O)NC(=O)[C@H](Cc2cn(CC(=O)O)c3ccccc23)NC(=O)[C@H](C(C)C)NC(=O)[C@H](Cc2cccc(Cl)c2)N(C)C(=O)[C@H](C(C)C)NC(=O)[C@H](C)NC(=O)CSC[C@@H](C(=O)NCCOCCOCCOCCOCCC(N)=O)NC(=O)[C@H](Cc2ccc(O)cc2)N(C)C(=O)[C@H](Cc2ccncc2)NC(=O)[C@H](CCC(=O)NCCOCCOCCOCCOCCOCCOCCOCCOC)NC(=O)[C@H](CCCNC(=N)N)NC(=O)[C@H]([C@@H](C)CC)NC1=O [compound 82] ({CH2CO}-AV[NMePhe(3-Cl)]V[Trp(1-CH2COOH)]NYY(Carboxymethyl)IIRE(NH(CH2CH2O)8Me)[4Pal][NMeY]C[PEG4]-NH2; thioether N-15)
2 | 0.001 to 0.1 µM | CC[C@H](C)[C@@H]1NC(=O)[C@H](Cc2cccnc2)NC(=O)[C@H](Cc2ccc(O)cc2)NC(=O)[C@H](CC(N)=O)NC(=O)[C@H](Cc2cn(CC(=O)O)c3ccccc23)NC(=O)[C@H](C(C)C)NC(=O)[C@H](Cc2cccc(Cl)c2)N(C)C(=O)[C@H](C(C)C)NC(=O)[C@H](C)NC(=O)CSC[C@@H](C(=O)NCCOCCOCCOCCOCCC(N)=O)NC(=O)[C@H](Cc2ccc(O)cc2)N(C)C(=O)[C@H](Cc2ccncc2)NC(=O)[C@H](CCC(=O)NCCOCCOCCOCCOCCOCCOCCOCCOC)NC(=O)[C@H](CCCNC(=N)N)NC(=O)[C@H]([C@@H](C)CC)NC1=O [compound 83] ({CH2CO}-AV[NMePhe(3-Cl)]V[Trp(1-CH2COOH)]NY[3Pal]IIRE(NH(CH2CH2O)8Me)[4Pal][NMeY]C[PEG4]-NH2; thioether N-15)
3 | 0.001 to 0.1 µM | CC[C@H](C)[C@@H]1NC(=O)[C@H](Cc2cccnc2)NC(=O)[C@H](Cc2ccc(O)cc2)NC(=O)[C@H](CC(N)=O)NC(=O)[C@H](Cc2cn(CC(=O)O)c3ccccc23)NC(=O)[C@H](C(C)C)NC(=O)[C@H](Cc2cccc(Cl)c2)N(C)C(=O)[C@H](C(C)C)NC(=O)[C@H](C)NC(=O)CSC[C@@H](C(=O)NCCOCCOCCOCCOCCC(N)=O)NC(=O)[C@H](Cc2ccc(O)cc2)N(C)C(=O)[C@H](Cc2cccc(C(=O)O)c2)NC(=O)[C@H](CCC(=O)NCCOCCOCCOCCOCCOCCOCCOCCOC)NC(=O)[C@H](CCCNC(=N)N)NC(=O)[C@H]([C@@H](C)CC)NC1=O [compound 84] ({CH2CO}-AV[NMePhe(3-Cl)]V[Trp(1-CH2COOH)]NY[3Pal]IIRE(NH(CH2CH2O)8Me)[Phe(3-COOH)][NMeY]C[PEG4]-NH2; thioether N-15)
4 | 0.1 to 1 µM | CC[C@H](C)[C@@H]1NC(=O)[C@H](Cc2cccnc2)NC(=O)[C@H](Cc2ccc(N)nc2)NC(=O)[C@H](CC(N)=O)NC(=O)[C@H](Cc2cn(CC(=O)O)c3ccccc23)NC(=O)[C@H](C(C)C)NC(=O)[C@H](Cc2cccc(Cl)c2)N(C)C(=O)[C@H](C(C)C)NC(=O)[C@H](C)NC(=O)CSC[C@@H](C(=O)NCCOCCOCCOCCOCCC(N)=O)NC(=O)[C@H](Cc2ccc(O)cc2)N(C)C(=O)[C@H](Cc2cccc(C(=O)O)c2)NC(=O)[C@H](CCC(=O)NCCOCCOCCOCCOCCOCCOCCOCCOC)NC(=O)[C@H](CCCNC(=N)N)NC(=O)[C@H]([C@@H](C)CC)NC1=O [compound 85] ({CH2CO}-AV[NMePhe(3-Cl)]V[Trp(1-CH2COOH)]N[3Pal(6-NH2)][3Pal]IIRE(NH(CH2CH2O)8Me)[Phe(3-COOH)][NMeY]C[PEG4]-NH2; thioether N-15)
5 | 0.1 to 1 µM | CC[C@H](C)[C@@H]1NC(=O)[C@H](Cc2cccnc2)NC(=O)[C@H](Cc2ccc(N)nc2)NC(=O)[C@H](CC(N)=O)NC(=O)[C@H](Cc2cn(CC(=O)O)c3ccccc23)NC(=O)[C@H](C(C)C)NC(=O)[C@H](Cc2cccc(Cl)c2)N(C)C(=O)[C@H](C(C)C)NC(=O)[C@H](C)NC(=O)CSC[C@@H](C(=O)NCCOCCOCCOCCOCCC(N)=O)NC(=O)[C@H](Cc2ccc(O)cc2)N(C)C(=O)[C@H](Cc2ccncc2)NC(=O)[C@H](CCC(=O)NCCOCCOCCOCCOCCOCCOCCOCCOC)NC(=O)[C@H](CCCNC(=N)N)NC(=O)[C@H]([C@@H](C)CC)NC1=O [compound 86] ({CH2CO}-AV[NMePhe(3-Cl)]V[Trp(1-CH2COOH)]N[3Pal(6-NH2)][3Pal]IIRE(NH(CH2CH2O)8Me)[4Pal][NMeY]C[PEG4]-NH2; thioether N-15)
6 | 0.1 to 1 µM | CC[C@H](C)[C@@H]1NC(=O)[C@H](Cc2ccc(OCC(=O)O)cc2)NC(=O)[C@H](Cc2ccc(N)nc2)NC(=O)[C@H](CC(N)=O)NC(=O)[C@H](Cc2cn(CC(=O)O)c3ccccc23)NC(=O)[C@H](C(C)C)NC(=O)[C@H](Cc2cccc(Cl)c2)N(C)C(=O)[C@H](C(C)C)NC(=O)[C@H](C)NC(=O)CSC[C@@H](C(=O)NCCOCCOCCOCCOCCC(N)=O)NC(=O)[C@H](Cc2ccc(O)cc2)N(C)C(=O)[C@H](Cc2cccc(C(=O)O)c2)NC(=O)[C@H](CCC(=O)NCCOCCOCCOCCOCCOCCOCCOCCOC)NC(=O)[C@H](CCCNC(=N)N)NC(=O)[C@H]([C@@H](C)CC)NC1=O [compound 87] ({CH2CO}-AV[NMePhe(3-Cl)]V[Trp(1-CH2COOH)]N[3Pal(6-NH2)]Y(Carboxymethyl)IIRE(NH(CH2CH2O)8Me)[Phe(3-COOH)][NMeY]C[PEG4]-NH2; thioether N-15)
7 | 0.1 to 1 µM | CC[C@H](C)[C@@H]1NC(=O)[C@H](Cc2ccc(OCC(=O)O)cc2)NC(=O)[C@H](Cc2ccc(N)nc2)NC(=O)[C@H](CC(N)=O)NC(=O)[C@H](Cc2cn(CC(=O)O)c3ccccc23)NC(=O)[C@H](C(C)C)NC(=O)[C@H](Cc2cccc(Cl)c2)N(C)C(=O)[C@H](C(C)C)NC(=O)[C@H](C)NC(=O)CSC[C@@H](C(=O)NCCOCCOCCOCCOCCC(N)=O)NC(=O)[C@H](Cc2ccc(O)cc2)N(C)C(=O)[C@H](Cc2ccncc2)NC(=O)[C@H](CCC(=O)NCCOCCOCCOCCOCCOCCOCCOCCOC)NC(=O)[C@H](CCCNC(=N)N)NC(=O)[C@H]([C@@H](C)CC)NC1=O [compound 88] ({CH2CO}-AV[NMePhe(3-Cl)]V[Trp(1-CH2COOH)]N[3Pal(6-NH2)]Y(Carboxymethyl)IIRE(NH(CH2CH2O)8Me)[4Pal][NMeY]C[PEG4]-NH2; thioether N-15)
8 | 0.001 to 0.1 µM | CC[C@H](C)[C@@H]1NC(=O)[C@H](Cc2ccc(OCC(=O)O)cc2)NC(=O)[C@H](Cc2ccc(O)cc2)NC(=O)[C@H](CC(N)=O)NC(=O)[C@H](Cc2c[nH]c3ccccc23)NC(=O)[C@H](C(C)C)NC(=O)[C@H](Cc2cccc(Cl)c2)N(C)C(=O)[C@H](C(C)C)NC(=O)[C@H](C)NC(=O)CSC[C@@H](C(=O)NCCOCCOCCOCCOCCC(N)=O)NC(=O)[C@H](Cc2ccc(O)cc2)N(C)C(=O)[C@H](Cc2ccccc2)NC(=O)[C@H](CCC(=O)NCCOCCOCCOCCOCCOCCOCCOCCOC)NC(=O)[C@H](CCCNC(=N)N)NC(=O)[C@H]([C@@H](C)CC)NC1=O [compound 89]
9 | 0.001 to 0.1 µM | CC[C@H](C)[C@@H]1NC(=O)[C@H](Cc2ccc(OC)cc2)NC(=O)[C@H](Cc2ccc(O)cc2)NC(=O)[C@H](CC(N)=O)NC(=O)[C@H](Cc2c[nH]c3ccccc23)NC(=O)[C@H](C(C)C)NC(=O)[C@H](Cc2cccc(Cl)c2)N(C)C(=O)[C@H](C(C)C)NC(=O)[C@H](C)NC(=O)CSC[C@@H](C(=O)NCCOCCOCCOCCOCCC(N)=O)NC(=O)[C@H](Cc2ccc(O)cc2)N(C)C(=O)[C@H](Cc2cccc(C(=O)O)c2)NC(=O)[C@H](CCC(=O)NCCOCCOCCOCCOCCOCCOCCOCCOC)NC(=O)[C@H](CCCNC(=N)N)NC(=O)[C@H]([C@@H](C)CC)NC1=O [compound 90] ({CH2CO}-AV[NMePhe(3-Cl)]VWNYY(Me)IIRE(NH(CH2CH2O)8Me)[Phe(3-COOH)][NMeY]C[PEG4]-NH2; thioether N-15)
